According to patent publication US20240307349A1, “METHODS FOR THE PREPARATION AND DOSE REGIMENS FOR USE OF SSTR4 AGONISTS AND SALTS THEREOF” (priority 2023, published 2024):

System: participants with CLBP
Experiment: H0P-MC-BP03 Phase 2 placebo-controlled trial, chronic low back pain
Assay type: in vivo, human
Description: The purpose of this study was to test whether Example 5 is efficacious in relieving chronic low back pain (CLBP). Data will be collected to assess the safety and tolerability of Example 5 in this study population, which was previously discussed. Pharmacokinetic (PK) properties and pharmacodynamic (PD) effects were also be explored. The totality of data from this proof-of-concept study will assess the benefits and risks associated with Example 5.
BP03 was an 8-week, Phase 2, randomized, double-blind, placebo-controlled study that will compare Example 5 versus placebo in participants with CLBP. Participants received either Example 5 or placebo. Based on tolerability, participants took up to a maximum of 3 capsules orally (each capsule is 200 mg), twice daily (BID), approximately every 12 hours, for a total dose of 600 mg.
The primary clinical question of interest was, “What is the treatment difference between Example 5 and placebo assessed using mean change from baseline to endpoint (Week 8) for average pain intensity (API) as measured by the numeric rating scale (NRS) in participants with CLBP regardless of initiation of rescue medication or other allowed concomitant medication and assuming that they would have continued initially randomized treatment condition?”

Structure (SMILES): Cc1cccnc1OCC(C)(C)NC(=O)[C@H]1[C@@H]2CNC[C@@H]21.O=C(O)C(O)C(O)C(=O)O [Example 5, (1R,5S,6r)-N-(2-Methyl-1-((3-methylpyridin-2-yl)oxy)propan-2-yl)-3-azabicyclo[3.1.0]hexane-6-carboxamide L-tartrate sesquihydrate]
- Mean change from baseline assessment to endpoint for API as measured using the NRS (8 weeks after initial treatment administration, up to 600 mg Q12H, n = 102): −1.7
- primary objective: efficacy versus placebo, API by weekly average of NRS (Week 8, CLBP): did not meet the prespecified threshold
